Source: ChEMBL document CHEMBL1137297, “Synthesis and pharmacological evaluation of novel octahydro-1H-pyrido[1,2-a]pyrazine as mu-opioid receptor antagonists” (J Med Chem, 2006)
pIC50, pKi: −log10 of the molar value.

molecular target: T1, Mu-type opioid receptor (Homo sapiens, UniProt P35372); experiment: Antagonist activity assessed as inhibition of loperamide-stimulated [35S]GTPgammaS binding to human mu opioid receptor expressed in CHO cells; format: functional, cell-based
T1 sequence (P35372 whole entry): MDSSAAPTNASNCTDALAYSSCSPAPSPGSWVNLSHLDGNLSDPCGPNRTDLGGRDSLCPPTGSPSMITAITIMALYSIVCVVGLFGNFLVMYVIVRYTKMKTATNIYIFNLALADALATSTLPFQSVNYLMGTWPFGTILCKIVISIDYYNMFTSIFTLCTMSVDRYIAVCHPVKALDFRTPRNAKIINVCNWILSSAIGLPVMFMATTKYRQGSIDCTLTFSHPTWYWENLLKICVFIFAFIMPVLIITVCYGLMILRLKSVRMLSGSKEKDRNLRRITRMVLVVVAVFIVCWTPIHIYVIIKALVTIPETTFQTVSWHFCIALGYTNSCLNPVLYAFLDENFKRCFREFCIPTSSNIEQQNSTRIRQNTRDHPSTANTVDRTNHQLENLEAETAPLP

Structure (SMILES)	pIC50
C[C@H]1CN2C[C@H](c3ccccc3)NC[C@H]2C[C@@]1(C)c1cccc(C(N)=O)c1	8.82
Cc1ccccc1CN1CCN2C[C@H](C)[C@](C)(c3cccc(O)c3)C[C@@H]2C1	8.74
C[C@H]1CN2C[C@H](c3ccccc3)N(Cc3ccccc3)C[C@H]2C[C@@]1(C)c1cccc(C(N)=O)c1	7.55
CC(=O)N1C[C@H]2C[C@@](C)(c3cccc(O)c3)[C@@H](C)CN2C[C@@H]1c1ccccc1	6.66
CC(C)[C@H]1CN2C[C@H](C)[C@](C)(c3cccc(O)c3)C[C@@H]2CN1	7.18
Cc1cccc(CN2CCN3C[C@H](C)[C@](C)(c4cccc(O)c4)C[C@@H]3C2)c1	8.82
C[C@H]1CN2C[C@@H](c3ccccc3)NC[C@H]2C[C@@]1(C)c1cccc(O)c1	7.28
C[C@H]1CN2CCN(CCCc3ccccc3)C[C@H]2C[C@@]1(C)c1cccc(O)c1	7.89
C[C@H]1CN2CCN(Cc3ccco3)C[C@H]2C[C@@]1(C)c1cccc(O)c1	8.14
C[C@H]1CN2CCN(Cc3ccc(O)cc3)C[C@H]2C[C@@]1(C)c1cccc(O)c1	8.24
C[C@H]1CN2CCN(Cc3ccncc3)C[C@H]2C[C@@]1(C)c1cccc(O)c1	7.74
C[C@H]1CN2CCN(Cc3ccccc3)C[C@H]2C[C@@]1(C)c1cccc(O)c1	9.14
C[C@H]1CN2CCN(Cc3ccc(N(C)C)cc3)C[C@H]2C[C@@]1(C)c1cccc(O)c1	6.72
C[C@H]1CN2C[C@H](C3CCCCC3)NC[C@H]2C[C@@]1(C)c1cccc(O)c1	8.89
C[C@H]1CN2CCN(Cc3cccc(OCc4ccccc4)c3)C[C@H]2C[C@@]1(C)c1cccc(O)c1	7.66
C[C@H]1CN2C[C@H](Cc3ccccc3)NC[C@H]2C[C@@]1(C)c1cccc(O)c1	8.55
C[C@H]1CN2CCN(Cc3cccc(Oc4ccccc4)c3)C[C@H]2C[C@@]1(C)c1cccc(O)c1	8.01
C[C@H]1CN2CCN(Cc3ccoc3)C[C@H]2C[C@@]1(C)c1cccc(O)c1	8.21
C[C@H]1CN2CCN(Cc3ccc(Cl)cc3)C[C@H]2C[C@@]1(C)c1cccc(O)c1	7.38
C[C@H]1CN2CCN(S(=O)(=O)c3ccccc3)C[C@H]2C[C@@]1(C)c1cccc(O)c1	6.85
C[C@H]1CN2C[C@H](c3ccccc3)N(Cc3ccccc3)C[C@H]2C[C@@]1(C)c1cccc(O)c1	7.40
C[C@H]1CN2CCN(C(=O)Cc3ccccc3)C[C@H]2C[C@@]1(C)c1cccc(O)c1	8.17
C[C@H]1CN2CCN(Cc3cccc(O)c3)C[C@H]2C[C@@]1(C)c1cccc(O)c1	8.35
C[C@H]1CN2C[C@H](c3ccccc3)NC[C@H]2C[C@@]1(C)c1cccc(O)c1	8.96
C[C@H]1CN2C[C@@H](Cc3ccccc3)NC[C@H]2C[C@@]1(C)c1cccc(O)c1	7.66

molecular target: T2, Kappa-type opioid receptor (Homo sapiens, UniProt P41145); experiment: Antagonist activity assessed as inhibition of U50488-stimulated [35S]GTP-gamma-S binding to human kappa opioid receptor expressed in CHO cells; format: functional, cell-based
T2 sequence (P41145 whole entry): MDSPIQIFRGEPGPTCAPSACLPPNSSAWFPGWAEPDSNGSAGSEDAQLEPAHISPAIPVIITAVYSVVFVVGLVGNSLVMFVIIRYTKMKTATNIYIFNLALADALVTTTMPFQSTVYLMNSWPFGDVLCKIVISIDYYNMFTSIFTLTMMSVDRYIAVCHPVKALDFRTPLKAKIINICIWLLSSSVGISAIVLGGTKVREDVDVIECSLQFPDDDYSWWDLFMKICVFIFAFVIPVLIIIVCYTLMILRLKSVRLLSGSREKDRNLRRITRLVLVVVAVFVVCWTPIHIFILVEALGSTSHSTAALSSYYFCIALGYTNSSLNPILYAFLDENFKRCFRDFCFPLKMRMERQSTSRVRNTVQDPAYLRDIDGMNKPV

Structure (SMILES)	pIC50
C[C@H]1CN2C[C@H](c3ccccc3)NC[C@H]2C[C@@]1(C)c1cccc(C(N)=O)c1	8.64
Cc1ccccc1CN1CCN2C[C@H](C)[C@](C)(c3cccc(O)c3)C[C@@H]2C1	7.82
C[C@H]1CN2CCN(Cc3ccccc3)C[C@H]2C[C@@]1(C)c1cccc(O)c1	8.08
C[C@H]1CN2C[C@H](C3CCCCC3)NC[C@H]2C[C@@]1(C)c1cccc(O)c1	8.92
C[C@H]1CN2C[C@H](Cc3ccccc3)NC[C@H]2C[C@@]1(C)c1cccc(O)c1	7.80
C[C@H]1CN2C[C@H](c3ccccc3)N(Cc3ccccc3)C[C@H]2C[C@@]1(C)c1cccc(O)c1	7.00
C[C@H]1CN2C[C@H](c3ccccc3)NC[C@H]2C[C@@]1(C)c1cccc(O)c1	8.49

molecular target: T2, Kappa-type opioid receptor; experiment: Displacement of [3H]diprenorphine from human cloned kappa opioid receptor expressed in CHO cells; format: cell-based

Structure (SMILES)	pKi
C[C@H]1CN2C[C@H](c3ccccc3)NC[C@H]2C[C@@]1(C)c1cccc(C(N)=O)c1	7.96
Cc1ccccc1CN1CCN2C[C@H](C)[C@](C)(c3cccc(O)c3)C[C@@H]2C1	7.52
C[C@H]1CN2C[C@H](c3ccccc3)N(Cc3ccccc3)C[C@H]2C[C@@]1(C)c1cccc(C(N)=O)c1	6.34
CC(=O)N1C[C@H]2C[C@@](C)(c3cccc(O)c3)[C@@H](C)CN2C[C@@H]1c1ccccc1	6.21
CC(C)[C@H]1CN2C[C@H](C)[C@](C)(c3cccc(O)c3)C[C@@H]2CN1	7.24
Cc1cccc(CN2CCN3C[C@H](C)[C@](C)(c4cccc(O)c4)C[C@@H]3C2)c1	6.89
C[C@H]1CN2C[C@@H](c3ccccc3)NC[C@H]2C[C@@]1(C)c1cccc(O)c1	6.37
C[C@H]1CN2CCN(CCCc3ccccc3)C[C@H]2C[C@@]1(C)c1cccc(O)c1	6.02
C[C@H]1CN2CCN(Cc3ccco3)C[C@H]2C[C@@]1(C)c1cccc(O)c1	6.37
C[C@H]1CN2CCN(Cc3ccc(O)cc3)C[C@H]2C[C@@]1(C)c1cccc(O)c1	6.57
C[C@H]1CN2CCN(Cc3ccccc3)C[C@H]2C[C@@]1(C)c1cccc(O)c1	7.37
C[C@H]1CN2C[C@H](C3CCCCC3)NC[C@H]2C[C@@]1(C)c1cccc(O)c1	7.80
C[C@H]1CN2CCN(Cc3cccc(OCc4ccccc4)c3)C[C@H]2C[C@@]1(C)c1cccc(O)c1	7.48
C[C@H]1CN2C[C@H](Cc3ccccc3)NC[C@H]2C[C@@]1(C)c1cccc(O)c1	7.07
C[C@H]1CN2CCN(Cc3cccc(Oc4ccccc4)c3)C[C@H]2C[C@@]1(C)c1cccc(O)c1	7.62
C[C@H]1CN2CCN(Cc3ccoc3)C[C@H]2C[C@@]1(C)c1cccc(O)c1	6.92
C[C@H]1CN2CCN(Cc3ccc(Cl)cc3)C[C@H]2C[C@@]1(C)c1cccc(O)c1	6.55
C[C@H]1CN2C[C@H](c3ccccc3)N(Cc3ccccc3)C[C@H]2C[C@@]1(C)c1cccc(O)c1	6.92
C[C@H]1CN2CCN(C(=O)Cc3ccccc3)C[C@H]2C[C@@]1(C)c1cccc(O)c1	6.27
C[C@H]1CN2CCN(Cc3cccc(O)c3)C[C@H]2C[C@@]1(C)c1cccc(O)c1	7.25
C[C@H]1CN2C[C@@H](Cc3ccccc3)NC[C@H]2C[C@@]1(C)c1cccc(O)c1	6.89

molecular target: T3, Delta-type opioid receptor (Homo sapiens, UniProt P41143); experiment: Displacement of [3H]diprenorphine from human cloned delta opioid receptor expressed in CHO cells; format: cell-based
T3 sequence (P41143 whole entry): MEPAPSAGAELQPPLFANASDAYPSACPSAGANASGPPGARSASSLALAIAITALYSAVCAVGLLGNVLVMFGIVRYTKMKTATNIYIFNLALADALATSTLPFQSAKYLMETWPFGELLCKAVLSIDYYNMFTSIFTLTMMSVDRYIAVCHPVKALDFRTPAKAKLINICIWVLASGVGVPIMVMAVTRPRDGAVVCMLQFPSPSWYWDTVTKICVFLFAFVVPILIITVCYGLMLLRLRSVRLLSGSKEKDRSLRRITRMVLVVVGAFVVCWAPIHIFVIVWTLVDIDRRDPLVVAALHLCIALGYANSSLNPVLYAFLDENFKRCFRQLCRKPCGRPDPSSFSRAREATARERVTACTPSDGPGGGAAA

Structure (SMILES)	pKi
C[C@H]1CN2C[C@H](c3ccccc3)NC[C@H]2C[C@@]1(C)c1cccc(C(N)=O)c1	7.22
Cc1ccccc1CN1CCN2C[C@H](C)[C@](C)(c3cccc(O)c3)C[C@@H]2C1	7.05
C[C@H]1CN2C[C@H](c3ccccc3)N(Cc3ccccc3)C[C@H]2C[C@@]1(C)c1cccc(C(N)=O)c1	5.96
Cc1cccc(CN2CCN3C[C@H](C)[C@](C)(c4cccc(O)c4)C[C@@H]3C2)c1	6.29
C[C@H]1CN2C[C@@H](c3ccccc3)NC[C@H]2C[C@@]1(C)c1cccc(O)c1	6.18
C[C@H]1CN2CCN(CCCc3ccccc3)C[C@H]2C[C@@]1(C)c1cccc(O)c1	6.02
C[C@H]1CN2CCN(Cc3ccco3)C[C@H]2C[C@@]1(C)c1cccc(O)c1	5.82
C[C@H]1CN2CCN(Cc3ccc(O)cc3)C[C@H]2C[C@@]1(C)c1cccc(O)c1	6.66
C[C@H]1CN2CCN(Cc3ccncc3)C[C@H]2C[C@@]1(C)c1cccc(O)c1	5.89
C[C@H]1CN2C[C@H](C3CCCCC3)NC[C@H]2C[C@@]1(C)c1cccc(O)c1	7.17
C[C@H]1CN2CCN(Cc3ccoc3)C[C@H]2C[C@@]1(C)c1cccc(O)c1	6.13
C[C@H]1CN2CCN(Cc3ccc(Cl)cc3)C[C@H]2C[C@@]1(C)c1cccc(O)c1	6.38
C[C@H]1CN2CCN(S(=O)(=O)c3ccccc3)C[C@H]2C[C@@]1(C)c1cccc(O)c1	5.77
C[C@H]1CN2C[C@H](c3ccccc3)N(Cc3ccccc3)C[C@H]2C[C@@]1(C)c1cccc(O)c1	6.47
C[C@H]1CN2CCN(C(=O)Cc3ccccc3)C[C@H]2C[C@@]1(C)c1cccc(O)c1	7.15
C[C@H]1CN2CCN(Cc3cccc(O)c3)C[C@H]2C[C@@]1(C)c1cccc(O)c1	6.51
C[C@H]1CN2C[C@@H](Cc3ccccc3)NC[C@H]2C[C@@]1(C)c1cccc(O)c1	6.39

molecular target: T1, Mu-type opioid receptor; experiment: Displacement of [3H]diprenorphine from human cloned mu opioid receptor expressed in CHO cells; format: cell-based

Structure (SMILES)	pKi
C[C@H]1CN2C[C@H](c3ccccc3)NC[C@H]2C[C@@]1(C)c1cccc(C(N)=O)c1	8.74
Cc1ccccc1CN1CCN2C[C@H](C)[C@](C)(c3cccc(O)c3)C[C@@H]2C1	9.01
C[C@H]1CN2C[C@H](c3ccccc3)N(Cc3ccccc3)C[C@H]2C[C@@]1(C)c1cccc(C(N)=O)c1	7.77
CC(=O)N1C[C@H]2C[C@@](C)(c3cccc(O)c3)[C@@H](C)CN2C[C@@H]1c1ccccc1	7.03
CC(C)[C@H]1CN2C[C@H](C)[C@](C)(c3cccc(O)c3)C[C@@H]2CN1	6.42
Cc1cccc(CN2CCN3C[C@H](C)[C@](C)(c4cccc(O)c4)C[C@@H]3C2)c1	8.89
C[C@H]1CN2C[C@@H](c3ccccc3)NC[C@H]2C[C@@]1(C)c1cccc(O)c1	6.74
C[C@H]1CN2CCN(CCCc3ccccc3)C[C@H]2C[C@@]1(C)c1cccc(O)c1	7.44
C[C@H]1CN2CCN(Cc3ccco3)C[C@H]2C[C@@]1(C)c1cccc(O)c1	8.13
C[C@H]1CN2CCN(Cc3ccc(O)cc3)C[C@H]2C[C@@]1(C)c1cccc(O)c1	8.00
C[C@H]1CN2CCN(Cc3ccncc3)C[C@H]2C[C@@]1(C)c1cccc(O)c1	7.82
C[C@H]1CN2CCN(Cc3ccccc3)C[C@H]2C[C@@]1(C)c1cccc(O)c1	8.92
C[C@H]1CN2CCN(Cc3ccc(N(C)C)cc3)C[C@H]2C[C@@]1(C)c1cccc(O)c1	6.12
C[C@H]1CN2C[C@H](C3CCCCC3)NC[C@H]2C[C@@]1(C)c1cccc(O)c1	8.57
C[C@H]1CN2CCN(Cc3cccc(OCc4ccccc4)c3)C[C@H]2C[C@@]1(C)c1cccc(O)c1	7.89
C[C@H]1CN2CCN(Cc3cccc(Oc4ccccc4)c3)C[C@H]2C[C@@]1(C)c1cccc(O)c1	7.68
C[C@H]1CN2CCN(Cc3ccoc3)C[C@H]2C[C@@]1(C)c1cccc(O)c1	7.92
C[C@H]1CN2CCN(Cc3ccc(Cl)cc3)C[C@H]2C[C@@]1(C)c1cccc(O)c1	7.77
C[C@H]1CN2CCN(S(=O)(=O)c3ccccc3)C[C@H]2C[C@@]1(C)c1cccc(O)c1	6.68
C[C@H]1CN2C[C@H](c3ccccc3)N(Cc3ccccc3)C[C@H]2C[C@@]1(C)c1cccc(O)c1	8.33
C[C@H]1CN2CCN(C(=O)Cc3ccccc3)C[C@H]2C[C@@]1(C)c1cccc(O)c1	7.77
C[C@H]1CN2CCN(Cc3cccc(O)c3)C[C@H]2C[C@@]1(C)c1cccc(O)c1	8.37
C[C@H]1CN2C[C@@H](Cc3ccccc3)NC[C@H]2C[C@@]1(C)c1cccc(O)c1	7.60

molecular target: T3, Delta-type opioid receptor; experiment: Inhibition of [3H]diprenorphine binding to human cloned delta opioid receptor expressed in CHO cells at 10 uM; format: cell-based

Structure (SMILES)	inhibition [%]
CC(=O)N1C[C@H]2C[C@@](C)(c3cccc(O)c3)[C@@H](C)CN2C[C@@H]1c1ccccc1	57
CC(C)[C@H]1CN2C[C@H](C)[C@](C)(c3cccc(O)c3)C[C@@H]2CN1	15
C[C@H]1CN2CCN(Cc3ccc(N(C)C)cc3)C[C@H]2C[C@@]1(C)c1cccc(O)c1	26
C[C@H]1CN2CCN(Cc3cccc(OCc4ccccc4)c3)C[C@H]2C[C@@]1(C)c1cccc(O)c1	43
C[C@H]1CN2CCN(Cc3cccc(Oc4ccccc4)c3)C[C@H]2C[C@@]1(C)c1cccc(O)c1	55

molecular target: T3, Delta-type opioid receptor; experiment: Antagonist activity assessed as inhibition of BW373U86-stimulated [35S]GTP-gamma-S binding to human delta opioid receptor expressed in CHO cells; format: functional, cell-based

Structure (SMILES)	pIC50
C[C@H]1CN2C[C@H](c3ccccc3)NC[C@H]2C[C@@]1(C)c1cccc(C(N)=O)c1	6.96
Cc1ccccc1CN1CCN2C[C@H](C)[C@](C)(c3cccc(O)c3)C[C@@H]2C1	7.21
C[C@H]1CN2CCN(Cc3ccccc3)C[C@H]2C[C@@]1(C)c1cccc(O)c1	6.82
C[C@H]1CN2C[C@H](C3CCCCC3)NC[C@H]2C[C@@]1(C)c1cccc(O)c1	7.55
C[C@H]1CN2C[C@H](Cc3ccccc3)NC[C@H]2C[C@@]1(C)c1cccc(O)c1	7.48
C[C@H]1CN2C[C@H](c3ccccc3)N(Cc3ccccc3)C[C@H]2C[C@@]1(C)c1cccc(O)c1	5.89
C[C@H]1CN2C[C@H](c3ccccc3)NC[C@H]2C[C@@]1(C)c1cccc(O)c1	7.01

molecular target: T2, Kappa-type opioid receptor; experiment: Inhibition of [3H]diprenorphine binding to human cloned kappa opioid receptor expressed in CHO cells at 10 uM; format: cell-based

Structure (SMILES)	inhibition [%]
C[C@H]1CN2CCN(Cc3ccncc3)C[C@H]2C[C@@]1(C)c1cccc(O)c1	67
C[C@H]1CN2CCN(Cc3ccc(N(C)C)cc3)C[C@H]2C[C@@]1(C)c1cccc(O)c1	34
C[C@H]1CN2CCN(S(=O)(=O)c3ccccc3)C[C@H]2C[C@@]1(C)c1cccc(O)c1	34
